From US20120282167A1, “METHOD FOR PREDICTING THE SENSITIVITY OF A TUMOR TO AN EPIGENETIC TREATMENT” (INSTITUT CURIE, priority 2009, published 2012)

Legend:
Format in all cases: cell-based, human
[1] = tested on: genes located in the regions of downregulation in cell line CL1207; test: Re-expression of genes in the regions of downregulation, RT-qPCR, CL1207 cell line; conditions: for re-expression of genes in downregulated regions 2-7, 3-2, 3-5, 7-2, 14-1, 19-3A and 19-3B: 300 nM TSA 16 hours, 5 μM 5-aza-deoxycytidine 72 hours, or 5 μM 5-aza-deoxycytidine 48 hours followed by 300 nM TSA 10 hours; for re-expression of genes in regions 6-7 and 17-7: same treatments, effect if fold-change >1.5
Text: FIG. 3: […] The treatments were scored as having an effect (resulting in re-expression) if the fold-change between treated and non-treated was greater than 1.5. […] With both methods, all samples were run in duplicate. For all experiments involving […] and CL1207 both methods were used.

[2] = tested on: genes within the seven epigenetic regions in NHU, MGHU3, RT112 and T24 cells; test: Re-expression of genes of the seven RES regions after TSA, RT-qPCR (TLDA), NHU, MGHU3, RT112 and T24
Protocol: (§1) FIG. 10: Characterization of the regional epigenetic phenotype in bladder cancer cell lines. (a) Comparison of mRNA expression for genes in region 2-7 before and after treatment with TSA in bladder cancer cell lines and NHU cells; results obtained for the CL1207 cells (from FIG. 3) are also shown. Transcript values were measured by RT-qPCR using TLDA (see Materials and Methods in experimental section). The ratio between treated and non-treated cells is shown. Error bars represent the variation between the means of two independent experiments of TSA treatment. (b) Same comparison for region 3-2. (c) Same comparison for region 19-3A. (d) Summary of the effects of TSA treatment on all bladder cancer and NHU cell lines studied. Only groups of genes in which at least two genes were re-expressed after treatment are considered (see FIG. 11). (e) ChIP analysis in TCCSUP and RT112 cells for regions 2-7, 3-2 and 19-3A, with an antibody against trimethyl residues on lysine 9 of histone 3.
(§2) FIG. 11: Comparison of the mRNA levels of the genes in regions 3-5, 7-2, 14-1 and 19-3B in bladder cancer and normal cells before and after treatment with TSA. mRNA levels were assessed by RT-qPCR using TLDA (see Materials and Methods in experimental section). The ratio between treated versus non-treated cells is shown. Error bars represent the variation between two independent experiments. […]

[3] = tested on: cell lines with the RES phenotype (TCCSUP, HT1376, JMSU1 and CL1207); test: Trichostatin A sensitivity assay (living cells counted after 72 hours, treated versus non-treated); conditions: on average for TCCSUP, doses 100 nM to 500 nM, read-out: IC50 (half maximal inhibitory concentration), growth inhibition
Protocol: (§3) FIG. 13: Cell viability after treatment with various doses of trichostatin A in bladder cancer cell lines with or without the RES phenotype and NHU cells. The percentage of surviving treated versus non-treated cells as a function of TSA concentration for various bladder cancer (MGHU3, RT112, T24, TCCSUP, HT1376, JMSU1, CL1207) and normal (NHU) cell lines is indicated. The number of cells surviving post treatment with TSA for 72 hours was counted and compared to control (no treatment) cultures. Cell lines with the RES phenotype are indicated with full symbols (TCCSUP, HT1376, JMSU1, CL1207) whereas cell lines without the RES phenotype (NHU, MGHU3, RT112, T24) are indicated with empty symbols. The error bars indicate the mean variation between two independent experiments.
(§4) All bladder cancer and NHU cell lines were seeded in 12-well plates at a density of 5×10^4 cells/well. Cultures were treated the next day, in duplicate, with various doses of trichostatin A, from 100 nM to 500 nM, with two wells left untreated. After 72 hours, the living cells in each treated well were harvested and counted and compared to the numbers of cells in the non-treated wells. The resulting ratio was used to assess sensitivity to trichostatin A.
(§5) The RES phenotype was characterized by strong histone K9 and K27 methylation and K9 hypoacetylation, but extremely rare DNA methylation. […]

[4] = tested on: cell lines without the RES phenotype (MGHU3, RT112 and T24) and NHU cells; test: as above; conditions: doses 100 nM to 500 nM, read-out: IC50 (half maximal inhibitory concentration), growth inhibition
Protocol: as §3, §4, §5

[5] = tested on: genes within the seven epigenetic regions in TCCSUP, HT1376 and JMSU1 cells; test: Re-expression of genes of the seven RES regions after TSA, RT-qPCR (TLDA), cell lines TCCSUP, HT1376 and JMSU1
Protocol: as §1, §2

[6] = tested on: H3K9me3, H3K27me3 and H3K9ac at gene promoters in CL1207 cells; test: Chromatin immunoprecipitation (ChIP) of histone modifications in CL1207 before and after TSA; conditions: 300 nM TSA for 16 h
Text: FIG. 5: Analyses of epigenetic modifications in regions 2-7 and 19-3A (a) Schematic map of region 2-7 (not to scale) with CpG islands, according to the UCSC browser. The number of CpG in each island is indicated. (b) DNA methylation analyses for region 2-7: bisulfite sequencing analyses for CpG 141 and CpG 39 covering a promoter region. In each case, T1207 DNA, CL1207 DNA, NHU DNA and SssI-methylated DNA (“Met. DNA”) were studied. Each row represents an individual clone, and each box (methylated in black, unmethylated in white) represents an individual CpG site. The curved arrows indicate the transcription start sites. (c) ChIP assays were performed for promoters in region 2-7 with antibodies against trimethyl H3K9 (left panel), trimethyl H3K27 (middle panel) and acetyl H3K9 (right panel). […] (d) Schematic map of region 19-3A with CpG islands. (e) ChIP analyses for region 19-3A as in (c).
FIG. 6: Analyses of epigenetic modifications in region 3-2. (a) Schematic map of region 3-2 (not to scale) with CpG islands, according to the UCSC browser. The number of CpGs in each island is indicated. (b) DNA methylation analyses for region 3-2: bisulfite sequencing analyses for the three CpGs covering a promoter region: CpG 74, 59 and 68. In each case, DNA from T1207, CL1207 and NHU and SssI-methylated DNA (“Met. DNA”) were studied. Each row represents an individual clone and each box represents an individual CpG site. A black box indicates methylation and a white box no methylation. The curved arrows indicate the transcription start sites. (c) Methylation analysis of DLEC1 promoter by bisulfite sequencing in five tumor samples showing downregulation of region 3-2: T195, T259, T447, T910 and T1448. […]
Chromatin immunoprecipitation (ChIP) assays were carried out in duplicate in three 150 cm^2 dishes for untreated CL1207, CL1207 treated with 300 nM TSA for 16 h, TCCSUP, RT112 and NHU cells. […] The amount of immunoprecipitated target was determined by real-time PCR, in duplicate, using the ABI PRISM 7900HT Sequence Detection System. […]

[7] = most of the genes in all three regions

Compound	re-expression of genes in downregulated regions 2-7, 3-2, 3-5, 7-2, 14-1, 19-3A and 19-3B ([1]; effect if ratio >1.5)	genes re-expressed after 5-aza-deoxycytidine treatment alone ([1]; BSN (3-5), SKAP2, HOXA4, HOXA5 (7-2), EFS, AP1G2 (14-1), 5 μM, 72 hours)	re-expression of genes in regions 6-7 and 17-7 [1]	gene re-expression in repressed regions on chromosome 3 (VILL to ACAA1) and 2 (HOXD8 to HOXD1) ([1]; compared with TSA, effect if ratio >1.5)	re-expression of the regions in RT112 cells ([2]; RT112, TSA treatment)	re-expression of genes within the seven epigenetic regions ([2]; first group: NHU, MGHU3, RT112 and T24, 300 nM TSA 16 hours)	IC50 [3] [nM]	IC50 [4] [nM]	re-expression of the regions in TCCSUP cell line ([5]; TCCSUP, TSA treatment)	re-expression of genes within the seven epigenetic regions ([5]; second group: TCCSUP, HT1376 and JMSU1, 300 nM TSA 16 hours)	H3K9 and H3K27 trimethylation at promoters of BSN, HOXA1, DHRS2 and JAK3 (regions 3-5, 7-2, 14-1, 19-3B) [6]	levels of active mark (H3K9ac) at promoters, regions 2-7, 3-2 and 19-3A [6, 7]	levels of inactive marks (H3K9me3, H3K27me3) at promoters, regions 2-7, 3-2 and 19-3A [6, 7]
Nc1ncn([C@H]2C[C@H](O)[C@@H](CO)O2)c(=O)n1 [5-aza-deoxycytidine]	reexpression of most of the genes in seven regions	re-expressed	either to no re-expression or re-expression of only one isolated gene										
Nc1ccccc1NC(=O)c1ccc(CNC(=O)OCc2cccnc2)cc1 [MS275]				enabled gene re-expression in the studied regions as well as did TSA									
CC(/C=C/C(=O)NO)=C\[C@@H](C)C(=O)c1ccc(N(C)C)cc1 [TSA, trichostatin A]	reexpression of most of the genes in seven regions		either to no re-expression or re-expression of only one isolated gene		no region was re-expressed, except two genes in region 7-2	most of the genes were not re-expressed, except for a few isolated genes in some cell lines	100	500	all regions were re-expressed	gene re-expression was observed for most of the silenced regions after treatment	these marks were decreased	increased the levels of the active mark	decreased the levels of the inactive marks
